Reference: patent publication US8759366B2, “Aminopyrimidines as SYK inhibitors” (Merck Sharp & Dohme Corp., priority 2009, dated 2014)
Read-outs that look alike come from different tables or passages of the source. Values belong to the compound of their own block, whether it stands above or below them.

What was measured:
[1] = biological target: T1, recombinant human SYK (GST-hSYK fusion protein) (Homo sapiens (Human), UniProt P43405); test: biochemical
Excerpt: (§1) Homogeneous Time-Resolved Fluorescence (HTRF) Assay for the Recombinant Human SYK Enzyme:

rhSYK = rhSYK (Homo sapiens (Human), UniProt P43405); test: biochemical
PGD2 = details: dosed intranasally, phase I/II study, allergic rhinitis; cited from earlier work
[2] = phase II clinical trial, allergic rhinitis; cited from earlier work
[3] = biological target: T1, recombinant human SYK (GST-hSYK fusion protein)
Excerpt: as §1

[4] = read-out: rhSYK Activity, recombinant human SYK, HTRF assay, class symbols
[5] = read-out: rhSYK Activity, Table 113C
[6] = read-out: rhSYK Activity, Table 33D
[7] = read-out: rhSYK Activity, Table 33B

SMILES: Cc1cc(Nc2nccc(C(F)(F)F)n2)cc(-c2cnc(C3(O)CCC(NC(=O)C4CCCOC4)CC3)s2)c1 (stereo not shown) [Example 54E-18]
- IC50 [1]: < 100 nM

- IC50 [1]: 100 to 1000 nM
SMILES: CC(C)(C)OC(=O)N1CC(Oc2ccnc(Nc3cc(N)cc(-c4cnc(C5(O)CCC5)s4)c3)n2)C1 [Example 109-10]

- IC50 [1]: 100 to 1000 nM
SMILES: Cc1cc(Nc2nccc(C(F)(F)F)n2)cc(-c2cnc(C3CCC(C(N)=O)C(C)(C)C3)s2)c1 (single isomer, unassigned) [154(b), 2,2-Dimethyl-4-[5-(3-methyl-5-{[4-(trifluoromethyl)pyrimidin-2-yl]amino}phenyl)-1,3-thiazol-2-yl]cyclohexanecarboxamide]

- IC50 (rhSYK): < 100 nM
SMILES: CCNC(=O)Nc1cc(Nc2nccc(C(F)(F)F)n2)cc(-c2cnc(C3CCC(C(N)=O)CC3)s2)c1 (single isomer, unassigned) [Example 20(1), 4-[5-(3-[(ethylcarbamoyl)amino]-5-{[4-(trifluoromethyl)pyrimidin-2-yl]amino}phenyl)-1,3-thiazol-2-yl]cyclohexanecarboxamide]

- IC50 [1]: < 100 nM
SMILES: COC(=O)C(C)(C)Cc1ncc(-c2cc(C)cc(Nc3nccc(C(F)(F)F)n3)c2)s1 [Example 77, Methyl 2,2-dimethyl-3-[5-(3-methyl-5-{[4-(trifluoromethyl)pyrimidin-2-yl]amino}phenyl)-1,3-thiazol-2-yl]propanoate]

- IC50 [1]: < 100 nM
SMILES: CC(=O)Nc1cc(Nc2nccc(OC3CCN(C(C)=O)CC3)n2)cc(-c2cnc(C3(O)CCC3)s2)c1 [Example 109-3]

SMILES: CC(C)(c1ncc(-c2cc(F)cc(Nc3nccc(C(F)(F)F)n3)c2)s1)S(N)(=O)=O [2-[5-(3-fluoro-5-{[4-(trifluoromethyl)pyrimidin-2-yl]amino}phenyl)-1,3-thiazol-2-yl]propane-2-sulfonamide]
- IC50 [1]: 818 nM

- IC50 [1]: < 100 nM
SMILES: COc1ccnc(Nc2cc(C)cc(-c3cnc([C@]4(F)CC[C@@H](C(=O)O)CC4)s3)c2)n1 [Example 113D-13]

- IC50 (rhSYK): < 100 nM
SMILES: O=C(O)[C@H]1CC[C@H](c2ncc(-c3cccc(Nc4nccc(C(F)(F)F)n4)c3)s2)CC1 [Example 22, Trans-4-[5-(3-{[4-(trifluoromethyl)pyrimidin-2-yl]amino}phenyl)-1,3-thiazol-2-yl]cyclohexanecarboxylic acid]

- IC50 [1]: < 100 nM
SMILES: Cc1cc(Nc2nccc(C(F)(F)F)n2)cc(-c2cnc([C@@](O)(CO)c3ccc(C(=O)O)cc3)s2)c1 [145(B), (S)4-{1,2-dihydroxy-1-[5-(3-methyl-5-{[4-(trifluoromethyl)pyrimidin-2-yl]amino}phenyl)-1,3-thiazol-2-yl]ethyl}benzoic acid]

SMILES: Oc1cccc(Nc2ncc(F)c(Nc3cccc(O)c3)n2)c1 [Example R112]
- PGD2 (PGD2): statistically significant decrease
- clinical safety (PGD2): safe across a range of indicators
- efficacy versus placebo [2]: lack of efficacy

- IC50 [3, 4]: < 100 nM
SMILES: Cc1cc(Nc2nccc(C(F)(F)F)n2)cc(-c2cnc(C3(O)CN(C(N)=O)C3)s2)c1 [Example 54B-1]

- IC50 ([3]; read-out: rhSYK activity): < 100 nM
SMILES: Cc1cc(Nc2nccc(C(F)(F)F)n2)cc(-c2cnc(C3(O)CCC(NC(=O)[C@H](C)O)CC3)s2)c1 (stereo in doubt) [Example 54E-2]

- IC50 [3, 5]: < 100 nM
SMILES: Cc1cc(Nc2nccc(C3CC3)n2)cc(-c2cnc(C3(O)CCNC(=O)CC3)s2)c1 (stereo not shown) [113C-2]

- IC50 [3, 6]: 100 to 1000 nM
SMILES: COC(=O)c1ccc(C(C)(O)c2ncc(-c3cc(C)cc(Nc4nccc(C(F)(F)F)n4)c3)s2)cc1 (stereo not shown) [Example 33D-17]

- IC50 [3, 5]: < 100 nM
SMILES: COc1nc(Nc2cc(C)cc(-c3cnc(C4(O)CCNC(=O)CC4)s3)c2)ncc1F (stereo not shown) [113C-6]

- IC50 [3, 6]: < 100 nM
SMILES: COC(=O)C(C)(C)/C=C/C(C)(O)c1ncc(-c2cc(C)cc(Nc3nccc(C(F)(F)F)n3)c2)s1 (stereo not shown) [Example 33D-6]

- IC50 ([3]; read-out: rhSYK Activity, Table 116A): 100 to 1000 nM
SMILES: Cc1cc(Nc2ncc(Cl)c(O)n2)cc(-c2cnc(C3(O)CCC(C(=O)O)C(C)(C)C3)s2)c1 (stereo not shown) [116A-29]

- IC50 [3, 7]: < 100 nM
SMILES: Cc1cc(Nc2nccc(C(F)(F)F)n2)cc(-c2cnc(C3(O)CCC(C(=O)O)C(C(C)C)C3)s2)c1 (single isomer, unassigned) [Example 33B-23]

- IC50 [3, 5]: < 100 nM
SMILES: O=C1CCC(O)(c2ncc(-c3cccc(Nc4nccc(C(F)(F)F)n4)c3)s2)CCN1 (stereo not shown) [113C-8]

- IC50 [3, 4]: < 100 nM
SMILES: Cc1cc(Nc2nccc(C(F)(F)F)n2)cc(-c2cnc(C3(O)CCN(C(=O)Nc4cc(Cl)ccc4C)CC3)s2)c1 [Example 54A-68]

- IC50 ([3]; read-out: rhSYK Activity, Table 113A): 100 to 1000 nM
SMILES: CCOC(=O)C1CCC(O)(c2ncc(-c3cc(C)cc(Nc4nccc(OCCCOC)n4)c3)s2)CC1C (stereo not shown) [Example 113A-47]

- IC50 [3, 4]: < 100 nM
SMILES: Cc1cc(Nc2nccc(C(F)(F)F)n2)cc(-c2cnc(C3(O)CCN(C(=O)c4ocnc4C)C3)s2)c1 (stereo not shown) [Example 54B-31]

- IC50 (rhSYK): < 100 nM
SMILES: O=C(NC1CC1)[C@H]1CC[C@H](c2ncc(-c3cccc(Nc4nccc(C(F)(F)F)n4)c3)s2)CC1 [Example 23, trans-N-cyclopropyl-4-[5-(3-{[4-(trifluoromethyl)pyrimidin-2-yl]amino}phenyl)-1,3-thiazol-2-yl]cyclohexanecarboxamide]

- IC50 [3, 4]: < 100 nM
SMILES: Cc1cc(Nc2nccc(C(F)(F)F)n2)cc(-c2cnc(C3(O)CCN(C(=O)Nc4ccc(C)cc4C)CC3)s2)c1 [Example 54A-66]

- IC50 ([3]; read-out: rhSYK Activity, Table 113D, upper part): 100 to 1000 nM
SMILES: COC(=O)c1ccc(C2(c3ncc(-c4cc(C)cc(Nc5nccc(C(F)(F)F)n5)c4)s3)CC2)cc1 [Example 113D-8]

- IC50 [3, 6]: < 100 nM
SMILES: Cc1cc(Nc2nccc(C(F)(F)F)n2)cc(-c2cnc(C(C)(O)c3ccc(NC(=O)CCC(=O)O)cc3)s2)c1 (stereo not shown) [Example 33D-14]

- IC50 [3, 7]: < 100 nM
SMILES: Cc1cc(Nc2nccc(C)n2)cc(-c2cnc(C3(O)CCC(C(=O)O)C(c4ccc(F)cc4)C3)s2)c1 (stereo not shown) [Example 33B-31]

- IC50 ([3]; read-out: rhSYK activity): < 100 nM
SMILES: COc1ccnc(Nc2cc(C)cc(-c3cnc(C4(NC(N)=O)CCC4)s3)c2)n1 [Example 64-4]
